According to US20080311189A1, “Compositions Comprising Organometallic Molybdenum Compounds For Treating Cancer” (priority 2004, published 2008):

Key:
Assay type in all cases: cell-based
[1] = tested on: Ehrlich ascites mouse tumor cell line; test: MTT viability assay, Ehrlich ascites cells; conditions: Ehrlich ascites mouse cancer cells, 3 hours incubation with drug, read 24 hours after removal of the drug
Experimental: (§1) The cytotoxic activity of theses complexes was evaluated against 6 different cell lines, using the MTT assay (3-(4,5-dimethylthiazol-2-yl)-2,5-diphenyltetrazolium bromide assay) (Mosmann, T. J. Immunol. Methods, 1983, 65, 55-63) to measure the cell viability.
(§2) Cell lines were routinely propagated in 75 cm^2 tissue culture flasks (SARSTEDT, Leicester, U.K.), in a humidified atmosphere of 5% CO2 in air at 37° C., and were trypsinized and harvested into new medium every 2-4 days, just before confluence. Cell lines were cultured for a minimum of two passages after thawing prior to experimentation.
The Ehrlich ascites mouse tumor cell line was purchased at ECACC (European Collection of Cell culture) and propagated in NCTC-135 medium (Sigma, ref. N3262) 2 mM in L-glutamine, supplemented with 10% heat-inactivated fetal bovine serum (FBS) and 1% penicillin/streptomycin.
(§3) This assay is based on the capacity of mitochondrial dehydrogenase enzymes in living cells to convert the yellow water soluble substrate (MTI) into a dark blue product which is quantified by spectrophotometric means. Briefly, exponentially growing cells were trypsinized, dispensed in sixplicates into 96-well tissue culture plates and allowed to attach overnight. The next day the cells were treated with various concentrations of the drug, ranging from 1 to 1000 μM. By addition of an adequate volume of a freshly prepared DMSO solution of the compound to the medium, the desired test concentrations were obtained. For. each test concentration and for the control which contained the corresponding amount of DMSO, 6 wells were used. After an incubation period of 3 hours the cells were carefully washed (twice) with phosphate buffer saline (PBS) and 100 μl of medium were added. The cells were incubated for 24 hours and 10 μl of a MTT solution (5 mg/ml) were added to each well. The tetrazolium/formazan reaction was allowed to proceed for 4 hours and the medium was carefully removed. The dark blue formazan crystals were dissolved by adding 150 μl of DMSO and agitating for 15 minutes in a plate shaker. The optical density was measured at […] using a 96-well multiscanner autoreader. The percentage of survival was calculated using the formula: % survival=live cell number [test]/live cell number [control]×100. The IC50 values were calculated by nonlinear regression analysis using the graphed Prism software (GraphPad Software, Inc., San Diego, Calif.) and are compiled in tables 2-4.
(§4) Using the colorimetric mitochondrial function-based MTT viability assay, we examined the effects of molybdenum (II) complexes against 6 different cell lines, by measuring the cellular proliferation at 8 different concentrations ranging from 1 to 1000 μM, 24 hours after removal of the drug. The IC50 values were calculated from dose-response curves obtained by nonlinear regression analysis. FIG. 4 represent and compare dose-response curves obtained for several molybdenum compounds against the Ehrlich ascites mouse cell line.

[2] = tested on: non-tumoral MRC-5 human fibroblast; test: MTT viability assay, non-tumoral human fibroblasts; conditions: MRC-5 human fibroblasts, 3 hours incubation with drug, 24 hours after removal
Experimental: as §1, §2
The […] cells, secondary human lung fibroblasts, were purchased at ECACC. The cells were grown in MEM with Earls' Salt and L-glutamine (Gibco, ref. 61100-053), supplemented with 10% fetal bovine serum (FBS) and 1% neomycin.
as §3, §4

[3] = tested on: GP-220 gastric human cell line; test: MTT viability assay, GP-220 cells; conditions: 3 hours incubation with drug, 24 hours after removal, read-out: IC50 VALUE, Human tumoral cell lines, Gastric GP-220
Experimental: as §1, §2
(§5) The tumnoral GP-202 and GP-220 gastric human cell lines were established at IPATIMUP (Instituto de Patologia e Imunologia Molecular da Universidade do Porto). […]
(§6) This assay is based on the capacity of mitochondrial dehydrogenase enzymes in living cells to convert the yellow water soluble substrate (MTI) into a dark blue product which is quantified by spectrophotometric means. […] The optical density was measured at […] using a 96-well multiscanner autoreader. The percentage of survival was calculated using the formula: % survival=live cell number [test]/live cell number [control]×100. The IC50 values were calculated by nonlinear regression analysis using the graphed Prism software (GraphPad Software, Inc., San Diego, Calif.) and are compiled in tables 2-4. […]

[4] = tested on: GP-202 gastric human cell line; test: MTT viability assay, GP-202 cells; conditions: 3 hours incubation with drug, 24 hours after removal, read-out: IC50 VALUE, Human tumoral cell lines, Gastric GP-202
Experimental: as §1, §2, §5, §6

[5] = tested on: HT-29 colorectal human cell line; test: MTT viability assay, HT-29 cells; conditions: 3 hours incubation with drug, 24 hours after removal, read-out: IC50 VALUE, Human tumoral cell lines, Colon HT-29
Experimental: as §1, §2
(§7) The tumoral MKN45 gastric and HT-29 colorectal human cell lines were purchased at ECACC. […]
as §6

[6] = tested on: MKN45 gastric human cell line; test: MTT viability assay, MKN-45 cells; conditions: 3 hours incubation with drug, 24 hours after removal, read-out: IC50 VALUE, Human tumoral cell lines, Gastric MKN-45
Experimental: as §1, §2, §7, §6

Substance | IC50 [1] [µM] | IC50 [2] [µM] | IC50 [3] [µM] | IC50 [4] [µM] | IC50 [5] [µM] | IC50 [6] [µM]
(η^3-C3H5)Mo(CO)2(1,10-phen)Br [Compound 24] | 7.3 ± 1 |  |  |  |  | 
(η^3-C3H5)Mo(CO)2(2,3-Me2-p-tolilDAB)Br [Compound 23] | 59.1 ± 1.1 | 104 ± 1.1 |  |  |  | 
(η^3-C3H5)Mo(CO)2(4,7-diphenyl-1,10-phen)Br [Compound 25] | 12.5 ± 1.2 | 12.1 ± 1.1 |  |  |  | 
[(η^5-Cp)Mo(CO)2dppe]BF4 [Compound 21] | 20 ± 1.1 | 24 ± 1 |  |  |  | 
[(η^5-Cp)Mo(CO)2trithiane]BF4 [Compound 19] | 142.1 ± 1.1 |  |  |  |  | 
[(η^5-Cp)Mo(CO)2tten]BF4 [Compound 20] | 138.9 ± 1.2 | 139.8 ± 1.2 |  |  |  | 
[(η^5-Cp)Mo(CO)2{5,6-Ph2-3-(2-py)-1,2,4-Tz}]BF4 [Compound 22] | 105 ± 1.2 | 68.9 ± 1.1 |  |  |  | 
[(η^5-Ind)Mo(CO)2(1,4,7,10-tetrt)]BF4 [Compound 17] | 19.9 ± 1.1 | 213.5 ± 1.1 |  |  |  | 
[(η^5-Ind)Mo(CO)2(2,2′-biq)]BF4 [Compound 8] | 35 ± 1.1 | 13 ± 1 | 2.7 ± 1 | 5 ± 1.1 | 13.3 ± 1.1 | 4.4 ± 1
[(η^5-Ind)Mo(CO)2(4,4′-Ph2-2,2′-bpy)]BF4 [Compound 2] | 13.7 ± 1.1 |  |  |  |  | 
[(η^5-Ind)Mo(CO)2(4,7-Me2-1,10-phen)]BF4 [Compound 7] | 29.5 ± 1 | 64.4 ± 1.1 |  |  |  | 
[(η^5-Ind)Mo(CO)2(4,7-Ph2-1,10-phen)]BF4 [Compound 6] | 5.7 ± 1 | 14.9 ± 1 | 1.8 ± 1.1 | 4.2 ± 1.1 | 6.6 ± 1 | 4.6 ± 1.1
[(η^5-Ind)Mo(CO)2(CYDAB)]BF4 [Compound 4] | 140.3 ± 1.2 | 75 ± 1.1 |  |  |  | 
[(η^5-Ind)Mo(CO)2(NCMe)2]BF4 [Compound 18] | 56.7 ± 1.7 |  |  |  |  | 
[(η^5-Ind)Mo(CO)2(p-tolilDAB)]BF4 [Compound 3] | 6.6 ± 1 | 84.1 ± 1 |  |  |  | 
[(η^5-Ind)Mo(CO)2bpy]BF4 [Compound 1] | 95.9 ± 1.1 | 143.2 ± 1.1 |  |  |  | 
[(η^5-Ind)Mo(CO)2dppe]BF4 [Compound 14] | 5.8 ± 1.1 | 20.3 ± 1.1 |  |  |  | 
[(η^5-Ind)Mo(CO)2phen]BF4 [Compound 5] | 32.9 ± 1 | 73.3 ± 1.1 |  |  |  | 
[(η^5-Ind)Mo(CO)2trithiane]BF4 [Compound 15] | 20.7 ± 1 | 136.6 ± 1 |  |  |  | 
[(η^5-Ind)Mo(CO)2tten]BF4 [Compound 16] | 8.4 ± 1.1 | 91 ± 1.1 |  |  |  | 
[(η^5-Ind)Mo(CO)2{1,2-Ph(NH2)2}]BF4 [Compound 13] | 67.6 ± 1.2 | 73.7 ± 1.1 |  |  |  | 
[(η^5-Ind)Mo(CO)2{5,6-Ph2-3-(2-py)-1,2,4-Tz}]BF4 [Compound 9] |  | 13.4 ± 1 |  |  |  | 
